Data as given in publication PMC9114674, “Synthesis of New 5′-Norcarbocyclic Aza/Deaza Purine Fleximers - Noncompetitive Inhibitors of E.coli Purine Nucleoside Phosphorylase” (Frontiers in Chemistry, 2022).

Tests used:
[1] = target: T1, E. coli purine nucleoside phosphorylase (PNP) (Escherichia coli, UniProt P0ABP8); assay: HPLC inosine phosphorolysis assay with recombinant enzyme, non-competitive inhibition kinetics; format: biochemical
T1 construct: gene deoD
T1 sequence (P0ABP8 2-239): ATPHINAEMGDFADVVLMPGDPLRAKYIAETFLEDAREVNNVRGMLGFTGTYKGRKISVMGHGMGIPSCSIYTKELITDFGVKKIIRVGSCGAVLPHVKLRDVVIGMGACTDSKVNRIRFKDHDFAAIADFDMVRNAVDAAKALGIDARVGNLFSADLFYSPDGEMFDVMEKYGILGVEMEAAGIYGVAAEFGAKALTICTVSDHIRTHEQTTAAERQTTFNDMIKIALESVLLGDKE

purified protein = substrate: OC[C@H]1O[C@@H](n2cnc3c(O)ncnc32)[C@H](O)[C@@H]1O; assay: purified protein; format: biochemical, Escherichia coli; settings: phosphate active site

For `Nc1ccncc1-c1cnn([C@@H]2C[C@H](O)[C@@H](O)[C@H]2O)c1` [compound 1, 1-(2′,3′,4′-Trihydroxycyclopent-1′-yl)-4-(4-aminopyridin-3-yl)pyrazole], the Ki [1] was 17 ± 4 mM.

In the case of `Nc1ncccc1-c1cnn([C@@H]2C[C@H](O)[C@@H](O)[C@H]2O)c1` [compound 2, 1-(2′,3′,4′-Trihydroxycyclopent-1′-yl)-4-(2-aminopyridin-3-yl)pyrazole], the Ki [1] is reported as 14 ± 1 mM.

In the case of `Nc1ncncc1-c1cnn([C@@H]2C[C@H](O)[C@@H](O)[C@H]2O)c1` [compound 3, 1-(2′,3′,4′-Trihydroxycyclopent-1′-yl)-4-(4-aminopyrimidin-3-yl)pyrazole], the Ki [1] is reported as 24 ± 3 mM.

B1: E. coli purine nucleoside phosphorylase (PNP) (Escherichia coli K-12) (protein)
chain: T1 sequence (P0ABP8 2-239)
B1 gave a Km (purified protein) of 130 ± 10 µM and a kcat (purified protein) of 900 ± 60 s⁻¹.
